Article PMC12119673, “Apoptotic cell death induced by copper (II), manganese (II) and silver (I) complexes containing bridging dicarboxylate and 1,10-phenanthroline ligands: one of the multi-modes of anticancer activity?” (Biometals, 2025)
Like-named read-outs stand apart in the source and are kept apart here.

Key:
Assay type in all cases: cell-based, human
[1] = tested on: MCF-7 cells; assay: In vitro cytotoxicity assessment, alamar blue assay, 24-h exposure
Protocol: The MCF-7 (human breast cancer) and MCF-12A (non-tumourigenic human breast) cell lines were obtained from the Technological University Dublin (TUDublin, City Campus) internal cell bank and commercially from the American Type Culture Collection (ATCC), respectively. Both cell lines were cultured using Dulbecco’s Modified Eagle Medium/Nutrient Mixture F-12 Ham (DMEM-F12) (Sigma, Ireland) (Cat# D6421) media. The MCF-7 media was supplemented with 10% Foetal Bovine Serum (Sigma, Ireland) (Cat# F7524) and 1% L-Glutamine (Sigma, Ireland) (Cat# 592020C). The MCF-12A media was supplemented with 5% Equine Serum (Sigma, Ireland) (Cat# H0146) 1.25% L-Glutamine (Sigma, Ireland) (Cat# 592020C), 20 ng/ml Human Epidermal Growth Factor (Thermo Fisher Scientific, Ireland) (Cat# PHG0313), 0.01 mg/ml insulin (Thermo Fisher Scientific, Ireland)(Cat# 12585014) and 500 ng/ml hydrocortisone (Sigma, Ireland) (Cat# H0888). The cells were grown in T75 culture flasks (Sarstedt, Germany) (Cat# 83.3911.002) and were incubated in a 5% CO2 atmosphere at 37 ℃. […] Following the incubation period, the media was removed, and cells were washed with sterile phosphate-buffered saline (PBS). […] Following the exposure period, the drug-containing media was removed, and cells were washed three times with PBS, ensuring complete removal of the test agents. A 5% working solution of Alamar Blue (Thermo Fisher Scientific, Ireland) (Cat# DAL1100) was prepared in dark conditions using unsupplemented cell culture media. 100 μl of the solution was added to each well, and the cells were incubated for 3 h. […] Each exposure was carried out in triplicate plates and was repeated three independent times. The software packages Microsoft^Ⓡ Excel (USA) and GraphPad Prism (Ver. 10.0.3) (GraphPad, USA) were used to analyse the alamar blue data. The treated sample values were first normalised to the negative control values. After normalisation, the mean and standard deviations (SD) were established using Microsoft^Ⓡ Excel. The statistical analysis package GraphPad was then used to determine the IC25 and IC50 concentrations.

[2] = tested on: apoptotic genes in MCF-12A cells; assay: Apoptosis-related gene expression, qRT-PCR; details: IC25 concentration, 24 h, relative to negative control
Protocol: (§1) A broad scope of molecular targets involved in the apoptotic pathway were selected for analysis using qRT-PCR including initiators, mediators and inhibitors. These gene targets along with their cellular location and associated primer set are outlined in Table 2. Primer sets for each gene were designed using NCBI nucleotide sequences and the Primer3 application (Table 3). Once designed, the primers were synthesised by Sigma Aldrich, Ireland.
(§2) MCF-7 and MCF-12A cells were seeded at a density of 1 × 10^5 in T25 flasks and incubated for 24 h allowing for attachment. Following incubation, the seeding media was removed, and the cells were washed with PBS. […] Post-exposure, RNA was isolated from the cells. Tri-reagent^Ⓡ (Sigma, Ireland) (Cat# T9424) was added to the cells followed by centrifugation at 300 g for 5 min. The RNA was precipitated using chloroform, followed by centrifugation and washing of the pellet using 75% ethanol. The RNA was resuspended in 30 μl of nuclease-free water. The RNA was either used immediately for qRT-PCR or stored at −80 ℃. The RNA from each sample was quantified using the NanoDrop™ 2000 Spectrophotometer (Thermo Fisher Scientific, Ireland). The A260/A230 ratio was measured to ensure the purity of each sample. Prior to cDNA synthesis, all samples were adjusted to a concentration of 100 ng. The RNA was then reverse transcribed into cDNA using the Quanta Biosciences Kit (Quanta Biosciences, USA) (Cat# 95047). Using the SimpliAmp Thermal Cycler (Applied Biosystems; Thermo Fisher Scientific, Ireland), the following settings were applied: 5 min at 22 ℃, 30 min at 42 ℃, 5 min at 85 ℃; samples were then maintained in an indefinite hold at 4 ℃ prior to being used for quantitative real-time PCR. The cDNA templates were amplified and analysed using SYBR™ Green (Fisher Scientific, UK) (Cat#10187094). Using the 7500 fast Real-Time PCR System (Applied Biosystems, USA), the following thermal cycling setting were applied for amplification: Pre-Incubation (1 cycle) 95 ℃, 5 Minutes, 4.4 ℃ ramp; Amplification (45 cycles) 95 °C 10 s ramp 4.4 °C, 60 °C 10 s ramp 2.2 °C, 72 °C 10 s ramp 4.4 °C; Melting Curve (1 cycle) 95 °C 5 s ramp 4.4 °C, 65 °C 1 min ramp 2.2 °C, 97 °C continuous ramp 0.11 °C acquisition 10 per °C; Cooling (1 cycle) 40 °C 10 s ramp 1.5 °C. Two reference genes, actin and tubulin, were employed to determine the expression of the target genes. No template controls were included to confirm the absence of template contamination and auto-fluorescence. Each PCR plate contained three technical replicates per sample and gene target, with each experiment repeated three independent times using three individual biological replicates.
(§3) qRT-PCR data was analysed by first using the Vandesompele method to calculate the geometric mean of Ct values for the reference genes, actin and tubulin. These values were used for normalisation of the target gene expression values which were then calculated using the Livak and Schmittgen formula: 2^−ΔCt1(test)−ΔCt2(control) (Livak and Schmittgen [2001]; Vandesompele et al. [2002]).
(§4) The expression profiles (Fig. 4) display the log(2) transformed mean expression value for each gene target relative to the negative control. Expression values for each target were determined relative to the geometric means of reference genes. […] Each graph contains a threshold line, set at the value of one, this represents baseline expression levels of genes.

[3] = tested on: apoptotic genes in MCF-7 cells; assay: Apoptosis-related gene expression, qRT-PCR; details: MCF-7, IC25 concentration, 24 h, relative to negative control
Protocol: as §1, §2, §3, §4

[4] = MCF-7, 24-hour exposure, per one metal centre, mean ± S.D. (N=3)
[5] = MCF-7, 24-hour exposure, per one metal centre, mean ± S.D. (N=3), read-out: IC50 calculated per one metal centre
[6] = MCF-7, 24-h exposure, 25% reduction in metabolic activity, mean ± SD (N = 3)

Molecule	Cytotoxic activity IC25 ± SD [1] [µM]	IC50 [1] [µM]	IC25 calculated per one metal centre [1, 4]	IC50 [1, 5] [µM]	Caspase gene expression (caspase-9, -8, -3) [2]	Pro-apoptotic gene expression (BID, BIM, BAD, BAX) [2]	Caspase gene expression (caspase-9, -8, -3) [3]	Pro-apoptotic gene expression (BID, BIM, BAD, BAX) [3]	Cytotoxic activity IC25 ± SD [1, 6] [µM]	IC50 ([1]; Homo sapiens, MCF7, MCF-7, 24-h exposure, 50% reduction in metabolic activity, mean ± SD (N = 3), read-out: Cytotoxic activity IC50 ± SD) [µM]	IC50 ([1]; MCF-7, 24-h exposure, 50% reduction in metabolic activity, mean ± SD (N = 3), read-out: Cytotoxic activity IC50 ± SD) [µM]
O=C([O-])CCCCCCC(=O)[O-].[Cu+2].[Cu+2].[O-][Cl+3]([O-])([O-])[O-].[O-][Cl+3]([O-])([O-])[O-].c1cnc2c(c1)ccc1cccnc12.c1cnc2c(c1)ccc1cccnc12.c1cnc2c(c1)ccc1cccnc12.c1cnc2c(c1)ccc1cccnc12 [Complex 1, [Cu2(oda)(phen)4](ClO4)2]	1.77 ± 0.14	4.76 ± 0.3	3.54 ± 0.28  µM	9.52 ± 0.6	expressed caspase 8	upregulated expression of the gene encoding BH3-only protein BID	expressing initiator caspase 9	upregulated expression of the gene encoding BH3-only protein BID			
O=C([O-])CCCCCCC(=O)[O-].[Cu+2].c1cnc2c(c1)ccc1cccnc12.c1cnc2c(c1)ccc1cccnc12 [Complex 2, [Cu(oda)(phen)2]]			2.04 ± 0.24  µM	6.72 ± 0.6	expressed caspase 8	upregulated expression of the gene encoding BH3-only protein BID	expressing initiator caspase 9	upregulated expression of the gene encoding BH3-only protein BID	2.04 ± 0.24		
O=C([O-])CCCCCCC(=O)[O-].[Ag+].[Ag+].c1cnc2c(c1)ccc1cccnc12.c1cnc2c(c1)ccc1cccnc12.c1cnc2c(c1)ccc1cccnc12 [Complex 4, [Ag2(oda)(phen)3]]			11.04 ± 1.78  µM		expression of caspase-9 and caspase-3	significantly elevated BIM and BAD expression	expression of caspase-9 and caspase-3		5.52 ± 0.89		
O=C([O-])CCCCCCCCCC(=O)[O-].[Ag+].[Ag+].c1cnc2c(c1)ccc1cccnc12.c1cnc2c(c1)ccc1cccnc12.c1cnc2c(c1)ccc1cccnc12 [Complex 5, [Ag2(udda)(phen)3]]			11.68 ± 0.24  µM		expression of caspase-9 and caspase-3	significantly elevated BIM and BAD expression	expression of caspase-9 and caspase-3		5.84 ± 0.12		
c1cnc2c(c1)ccc1cccnc12 [Phen, 1,10-Phenanthroline]			9.02 ± 4.26  µM		all caspases seen to be activated	pro-apoptotic BIM and BAD were upregulated	all caspases seen to be activated	pro-apoptotic BIM and BAD were upregulated	9.02 ± 4.26	33.2 ± 9.36	
{[Mn2(oda)3(phen)4]^2−[Mn2(oda)(phen)4 (H2O)2]^2+} [Complex 7]			2.80 ± 0.44  µM	11.2 ± 0.52	Initiator caspase 9 was expressed by MCF-12A cells, but executioner caspase-3 was not found to be expressed	only shown to express BIM	No caspase activity was observed	expression of both BID and BIM	0.70 ± 0.11		2.79 ± 0.13
